Assay results as given in patent publication US20240002361A1, “COMPOSITIONS AND METHODS FOR BLOCKING NEUROPILIN RECEPTOR 1 FOR THE TREATMENT OF PAIN AND PREVENTION OF VIRAL ENTRY” (Arizona Board of Regents on Behalf of the University of …, priority 2020, published 2024).

Assays:
[1] = biological target: T1, NRP-1/VEGF-A interaction (Homo sapiens, UniProt O14786); assay: ELISA-based NRP1-VEGF-A165 protein binding assay (single concentration); conditions: compounds 12.5 μM (Spike S1 100 nM), biotinylated VEGF-A165 10 nM; ± standard error of the mean, n = 11
T1 construct: coated with the extracellular domain of human NRP-1 (containing the a1a2 and the b1b2 regions); purchased Fisher, Hampton, NH 50-101-8343
T1 sequence (O14786 22-856 limits assumed): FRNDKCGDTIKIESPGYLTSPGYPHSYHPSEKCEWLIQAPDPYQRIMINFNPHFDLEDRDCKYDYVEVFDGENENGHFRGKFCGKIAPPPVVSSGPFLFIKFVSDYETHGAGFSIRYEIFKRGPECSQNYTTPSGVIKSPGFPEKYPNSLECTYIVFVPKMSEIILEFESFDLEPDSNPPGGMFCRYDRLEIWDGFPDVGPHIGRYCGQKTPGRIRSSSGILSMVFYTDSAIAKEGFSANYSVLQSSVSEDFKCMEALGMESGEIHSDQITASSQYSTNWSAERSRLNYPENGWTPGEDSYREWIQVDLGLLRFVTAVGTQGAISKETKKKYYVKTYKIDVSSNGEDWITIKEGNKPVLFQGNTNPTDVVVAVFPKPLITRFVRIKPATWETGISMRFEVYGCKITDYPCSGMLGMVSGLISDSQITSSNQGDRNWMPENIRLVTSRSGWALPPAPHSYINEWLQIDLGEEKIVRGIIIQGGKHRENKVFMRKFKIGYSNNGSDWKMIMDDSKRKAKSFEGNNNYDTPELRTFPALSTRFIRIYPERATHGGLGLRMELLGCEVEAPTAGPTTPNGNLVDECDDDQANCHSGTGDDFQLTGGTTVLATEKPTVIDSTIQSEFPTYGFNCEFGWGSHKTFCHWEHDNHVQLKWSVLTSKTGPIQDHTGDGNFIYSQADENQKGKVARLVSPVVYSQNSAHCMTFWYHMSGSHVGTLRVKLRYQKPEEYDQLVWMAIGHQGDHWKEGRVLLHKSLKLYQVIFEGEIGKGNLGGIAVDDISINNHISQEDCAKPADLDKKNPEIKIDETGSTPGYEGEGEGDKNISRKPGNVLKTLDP

[2] = tested on: pY1175 VEGFR2; assay: In cell Western for detecting inhibition of VEGFR2 activation by VEGF-A165; type: cell-based, mouse; conditions: CAD cells, absence of stimulation by VEGF-A
[3] = tested on: SNI rats; assay: Spared nerve injury (SNI)-induced mechanical allodynia, paw withdrawal threshold; type: in vivo, rats (Sprague Dawley, male); conditions: day 21 after surgery, 2.14 mg/5 ml intrathecally, n=5
Procedure: FIG. 8 is a line graph showing antagonism of NRP-1/VEGF-A signaling using compound 4. […] SNI elicited mechanical allodynia 21 days after surgery. Paw withdrawal thresholds for SNI rats (Sprague Dawley, male) administered saline (vehicle) or NRP-1 inhibitor (2.14 mg/5 ml) intrathecally (i.t.); n=5). P values, versus control, are indicated. Data are shown as mean±s.e.m. and were analyzed by non-parametric two-way analysis of variance where time was the within subject factor and treatment was the between subject factor (post hoc: Sidak). The experiments were analyzed by an investigator blinded to the treatment. […]
The assessment of tactile allodynia (i.e., a decreased threshold for paw withdrawal after probing with normally innocuous mechanical stimuli) involved testing the withdrawal threshold of the paw in response to probing with a series of calibrated fine (von Frey) filaments. […] The withdrawal threshold was determined by sequentially increasing and decreasing the stimulus strength (the ‘up and down’ method, and the data analyzed using the nonparametric method of Dixon (as described by Chaplan and Bach, J. Neurosci. Meth. 1994, 53, 55-63) with results expressed as the mean withdrawal threshold. The withdrawal threshold is a level that is statistically significant. Typically, greater than 50% deviation from the baseline could be allodynic.

[4] = biological target: T1, NRP-1/VEGF-A interaction; assay: ELISA-based NRP1-VEGF-A165 protein binding assay (concentration-response, IC50); conditions: 20 nM biotinylated hVEGF-A165 with 4 μg/ml heparin, n=3, read-out: Calculated IC50 values of inhibiting the NRP-1/VEGF-A interaction
Procedure: Plates (96-well, Nunc Maxisorp; Thermo Fisher Scientific, Waltham, MA, USA) were coated with human Neuropilin-1-Fc (200 ng per well, Cat #50-101-8343, Fisher, Hampton, NH) and incubated at 4° C. overnight. The following day, the plates were washed and blocked with 3% BSA in PBS to minimize non-specific adsorptive binding to the plates. EG00229 (Cat #6986, Tocris) or the indicated compounds were added at different concentrations and incubated for 30 min at room temperature prior to adding biotinylated human VEGF-A165 (Cat #BT10543-025, R&D systems) at 20 nM with 4 μg/ml of heparin. As a negative control, some wells received PBS containing 3% BSA and as a positive control only hVEGF-A165 was used. The plates were incubated at room temperature with shaking for 2 h. Next, the plates were washed with PBS 0.05% Tween to eliminate unbound protein. Bound biotinylated VEGF was detected by streptavidin-HRP (Cat #016-030-084, Jackson immunoResearch). Tetramethylbenzidine (Cat #DY999, R&D Systems, St. Louis, MO) was used as the colorimetric substrate. The optical density of each well was determined immediately, using a microplate reader (Multiskan Ascent; Thermo Fisher Scientific) set to 450 nm with a correction wavelength of 570 nm. Percentage of inhibition was calculated by the following formula: […]
where S is the optical density measured in the wells with the compounds, N is the optical density measured in the negative control wells and P is the optical density in the positive control wells. The IC50 was calculated using a non-linear regression function with GraphPad Prism Version 9. The data are presented as log (inhibitor) [M] versus normalized response-variable slope. Data are the means±S.E.M. of three independent experiments.
Finally, the ability of the compounds to interfere with the NRP-1NEGF-A interaction was evaluated using an enzyme linked immunosorbent assay (ELISA), as previously described (Moutal, et al., Pain 2021, 12(1), 243-252). Plates were coated with the extracellular domain of human NRP-1 (containing the a1a2 and the b1b2 regions) and the compounds were added to disrupt the NRP-1NEGF-A interaction. The biotinylated human VEGF-A used in the experiments described above (Moutal, et al., Pain 2021, 12(1), 243-252) was discontinued. For the instant studies, biotinylated hVEGF-A (Cat #BT10543-025, R&D systems) was used. Because of that, the known NRP-1 antagonist EG00229 and compound 4 from the above series of inhibitors (Moutal, et al., Pain 2021, 12(1), 243-252) were also tested in the instant studies.

**Q.** Which results are given for `Cc1nc(N2CCOCC2)ncc1-c1cc(=O)[nH]c(Nc2ccccc2)n1` [Compound 4]?
**A.** Rel % inhibition [1]: 68 ± 5%; inhibition of basal VEGFR2 phosphorylation [2]: showed inhibition; reversal of SNI-induced mechanical allodynia (paw withdrawal threshold) [3]: reverses spared nerve injury (SNI)-induced mechanical allodynia; IC50 [4]: 8.4 µM
